Consider 76 compounds from publication PMC7018972, “Novel and selective inactivators of Triosephosphate isomerase with anti-trematode activity” (Scientific Reports, 2020).

In general, IC50 refers to the point on the concentration scale where inhibition reaches its midpoint.

Molecules are shown by their SMILES.

Chain of Fasciola hepatica TIM (FhTIM) (S4UI50 entry or part of it): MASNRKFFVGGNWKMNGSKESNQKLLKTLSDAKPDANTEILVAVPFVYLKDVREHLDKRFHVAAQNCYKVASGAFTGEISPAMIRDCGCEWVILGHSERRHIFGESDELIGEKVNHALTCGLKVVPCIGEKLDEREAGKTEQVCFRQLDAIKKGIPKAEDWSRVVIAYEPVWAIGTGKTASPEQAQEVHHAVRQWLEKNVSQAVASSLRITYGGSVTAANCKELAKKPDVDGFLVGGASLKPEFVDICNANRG

One assay concerns the target Fasciola hepatica TIM (FhTIM) (Fasciola hepatica, UniProt S4UI50). As to the kind of experiment: Inhibition of recombinant FhTIM, coupled enzyme assay. The settings on record: Figure 1, ranges of inhibitory activity; read-out: IC50 range. It counts as biochemical. As to the method: Expression and purification of proteins: FhTIM, RabbitTIM and HsTIM were expressed in Escherichia coli and purified as described in the literature[31],[37]. […] Before use, extensive dialysis against 100 mM triethanolamine/10 mM EDTA (pH 7.4) was performed. […] Enzymatic activity was determined following the conversion of glyceraldehydes-3-phosphate into dihydroxyacetone phosphate in a coupled enzyme assay. The decrease in absorbance at 340 nm was followed in a multiplate reader VarioskanTM Flash Multimode Reader (Thermo ScientificTM, Waltham, MA, USA) at 38 °C. The reaction mixture (1 mL, pH 7.4) contained 100 mM triethanolamine, 10 mM EDTA, 0.2 mM NADH, 1 mM glyceraldehydes-3-phosphate and 0.9 units of α-glycerol phosphate dehydrogenase. The reaction was initiated by the addition of 5 ng/mL of the TIM of interest. For the inhibition studies, TIM was incubated at a concentration of 5 mg/mL in a buffer containing 100 mM triethanolamine, 10 mM EDTA, pH 7.4 and 10% of DMSO at 37 °C for 1 h. The mixture also contained the compounds, dissolved in DMSO, at the indicated concentrations. After 1 h, 10 µL were withdrawn and added to a final volume of 100 µL of the reaction mixture for the activity assay. The inhibition assay was performed in a 96-well microplate. […] The experiments were performed in triplicate in two independent experiments.
On to `CN(C)Cc1ccccc1Cn1nc(O)c2cc([N+](=O)[O-])ccc21` [Compound 482], for which the IC50 was under 50 µM.

Still in this assay, the particulars now being: Table 1S, screening of 340 compounds in FhTIM; table head prints no unit, µM per b8/b9; read-out: IC50.
For `O=C(/C=C/c1ccco1)N1CCN(C/C=C/c2ccccc2)CC1` [Compound 50], the 50% inhibitory concentration (IC50) is over 100 µM.
The same measure, in the same setting: the value for `CCOC(=O)C=Cc1ccc([N+](=O)[O-])o1` [Compound 66] was over 100 µM; that for `O=[N+]([O-])c1ccc(C=Cc2ccc3nonc3c2)cc1` [Compound 584] was over 100 µM; that for `C=CCn1c(C(=O)CNN2CCN(C/C=C/c3ccccc3)CC2)csc1=NN=C/C=C/c1ccco1` [Compound 1115] was over 100 µM.
The same measure, in the same setting: the figure for `O=C1C(=Cc2ccco2)CCCC1=Cc1ccco1` [Compound 808] is over 100 µM; for `Cc1nnc[n+]([O-])c1CC(c1ccc([N+](=O)[O-])cc1)N1CCOCC1` (centres unmarked) [Compound 360] it is over 100 µM; for `Cc1ccc(-c2cc(C(F)(F)F)nn2-c2ccc(S(N)(=O)=O)cc2)cc1` [Compound 1121] it is over 100 µM.
The same measure, in the same setting: the figure for `Cc1c(CNc2ccc3ccccc3c2)no[n+]1[O-]` [Compound 173] is 50 to 100 µM; for `C=CCn1c(-c2ccc(OC)cc2)csc1=NN=Cc1ccc([N+](=O)[O-])s1` [Compound 132] it is over 100 µM; for `[O-][n+]1onc2cc(F)c(F)cc21` [Compound 627] it is over 100 µM.
Regarding `Cc1nnc[n+]([O-])c1/C=C/c1ccc(Cl)cc1` [Compound 211], the IC50 is over 100 µM.
Same read-out and setting: the figure for `S=C(NN=Cc1ccccc1)Nc1ccccc1` [Compound 278] is over 100 µM.
Still for that read-out and setting: the figure for `C=CCn1c(-c2ccc(Br)cc2)csc1=NN=CC=Cc1ccco1` [Compound 306] is 50 to 100 µM; for `COC(=O)NN=Cc1no[n+]([O-])c1C` [Compound 174] it is over 100 µM; for `Cc1nnc[n+]([O-])c1/C=C/c1ccc([N+](=O)[O-])s1` [Compound 361] it is 100 µM.
On the same count and under the same terms, the figure for `O=C1C(=CC=Cc2ccco2)CCC1=CC=Cc1ccco1` [Compound 1223] is 50 to 100 µM.
Turning to `C=CCN1C(=O)C(CC(=O)O)SC1=NN=Cc1cccs1` (centres unmarked) [Compound 1139], the IC50 was 50 to 100 µM.
On the same count and under the same terms, the figure for `C(=NN=c1scc(-c2ccccc2)n1-c1ccccc1)c1ccccc1` [Compound 270] is over 100 µM; for `O=[N+]([O-])c1ccc2c(c1)c(OCc1ccccc1)nn2CCCCCBr` [Compound 518] it is 100 µM; for `CN(CC=Cc1ccccc1)CCCCCn1nc(OCc2ccccc2)c2cc([N+](=O)[O-])ccc21` [Compound 507] it is over 100 µM.
On to `O=C(O)c1csc(=NN=CC=CC=Cc2cccs2)n1-c1ccccc1` [Compound 1136], for which the IC50 was over 100 µM.
`C=CCn1c(C(=O)N2CCN(C)CC2)csc1=NN=C/C=C/c1ccco1` [Compound 1093]: the IC50 is over 100 µM.
Take `S=C(NN=C/C=C/c1ccco1)Nc1ccccc1` [Compound 277]: the IC50 was over 100 µM.
Same read-out and setting: the value for `Cc1c(CNc2cccc3ccccc23)no[n+]1[O-]` [Compound 172] was over 100 µM; that for `C=CCNC(=S)NN=Cc1ccco1` [Compound 69] was over 100 µM.
`NC(=S)NN=Cc1ccc([N+](=O)[O-])s1` [Compound 283]: the IC50 was over 100 µM.
Take `CC1(C)[N+]([O-])=c2ccc(Cl)cc2=[N+]1[O-]` [Compound 532]: the IC50 fell in the range of 50 to 100 µM.
Still for that read-out and setting: the figure for `CCCCNS(=O)(=O)NCCCC` [Compound 123] is over 100 µM; for `C=CCNC(=S)NN=Cc1ccc([N+](=O)[O-])s1` [Compound 136] it is over 100 µM.
The same measure, in the same setting: the value for `O=C1C(=CC=Cc2cccs2)CCCC1=CC=Cc1cccs1` [Compound 1245] was over 100 µM; that for `C=CCn1c(C)csc1=NN=CC=Cc1cccs1` [Compound 1128] was over 100 µM.
Regarding `CN(CC=Cc1ccccc1)Cc1ccc2c(c1)=[N+]([O-])C(C)(C)[N+]=2[O-]` [Compound 499], the IC50 is over 100 µM.
The same measure, in the same setting: the value for `O=C1C(=CC=Cc2ccccc2)CCC1=CC=Cc1ccccc1` [Compound 1246] was 50 to 100 µM; that for `O=C(O)c1ccc(Cl)[n+]([O-])c1` [Compound 472] was over 100 µM; that for `COc1ccc(C=O)cc1-c1cc(C=O)ccc1OC` [Compound 237] was over 100 µM.
Take `C=CCNc1nnc(-c2ccc([N+](=O)[O-])s2)s1` [Compound 292]: the IC50 is over 100 µM.
Consider `O=C1C(=CC=Cc2cccs2)CCC1=CC=Cc1cccs1` [Compound 1018], for which the IC50 is over 100 µM.
Still for that read-out and setting: the value for `C=CCNC(=S)NN=Cc1ccnc2ccccc12` [Compound 308] was 50 to 100 µM.
In the case of `C=CCNC(=S)NN=Cc1ccc(O)cc1` [Compound 291], the IC50 is over 100 µM.
The same measure, in the same setting: the figure for `NC1=NS(=O)(=O)N=C(N)C1=Cc1ccc([N+](=O)[O-])o1` [Compound 117] is over 100 µM; for `O=c1cc(O)n(Cc2ccccc2)c(=S)n1Cc1ccccc1` [Compound 1088] it is over 100 µM; for `NN1CCSCC1` [Compound 616] it is over 100 µM.
The same measure, in the same setting: the value for `O=S(=O)(NCc1ccccc1)NCc1ccccc1` [Compound 119] was over 100 µM.
The same measure, in the same setting: the value for `O=C(C=Cc1cccs1)C=Cc1cccs1` [Compound 796] was over 100 µM.
Regarding `[O-][n+]1onc2ccc(CN3CCN(CC=Cc4ccccc4)CC3)cc21` [Compound 609], the IC50 was over 100 µM.
Same read-out and setting: the figure for `CCOC(=O)On1c(C(=O)OCC)nc2ccc([N+](=O)[O-])cc21` [Compound 660] is over 100 µM; for `O=C(NN=Cc1ccccc1O)c1ccc(Cl)cc1` [Compound 1249] it is over 100 µM; for `Cc1c(C=Cc2ccc([N+](=O)[O-])s2)ncn[n+]1[O-]` [Compound 214] it is over 100 µM.
Same read-out and setting: the value for `C=CCn1c(C(=O)CN2CCN(c3ccccc3)CC2)csc1=NN=CC=Cc1ccco1` [Compound 1099] was over 100 µM; that for `C=CCn1c(C)csc1=NN=CC=Cc1ccc([N+](=O)[O-])s1` [Compound 259] was over 100 µM.
For the compound `NC1=NS(=O)(=O)N=C(N)C1` [Compound 126], the IC50 worked out at 100 µM.
Take `C=CCNC(=S)NN=Cc1ccsc1` [Compound 911]: the IC50 is over 100 µM.
For the compound `C=CCn1c(-c2ccc(Cl)cc2)csc1=NN=Cc1ccc(Cl)cc1` [Compound 265], the half-maximal inhibitory concentration (IC50) is over 100 µM.
Same read-out and setting: the figure for `O=[N+]([O-])c1ccc(C=CC=NNC(=S)Nc2ccccc2)o1` [Compound 54] is over 100 µM; for `CN1CC(=CC=Cc2ccco2)C(=O)C(=CC=Cc2ccco2)C1` [Compound 1282] it is over 100 µM; for `C(=CC=NN=c1scc(-c2ccccc2)n1-c1ccccc1)C=Cc1ccco1` [Compound 814] it is over 100 µM.
On the same count and under the same terms, the value for `CC(/C=N/N1CCSCC1)=C\c1ccco1` [Compound 878] was 50 to 100 µM.
On the same count and under the same terms, the value for `CN(C)CCCCCn1nc(O)c2cc([N+](=O)[O-])ccc21` [Compound 477] was over 100 µM; that for `COc1nn(CCOCCN2CCN(CC=Cc3ccccc3)CC2)c2ccc([N+](=O)[O-])cc12` [Compound 198] was over 100 µM.
Turning to `O=C1/C(=C/C=C/c2ccco2)CCC/C1=C\C=C\c1ccco1` [Compound 1019], the half-maximal inhibitory concentration (IC50) was in the range of 50 to 100 µM.
For the compound `O=C1C(=CC=Cc2ccccc2)CCCC1=CC=Cc1ccccc1` [Compound 800], the IC50 was over 100 µM.
Still for that read-out and setting: the value for `O=[N+]([O-])c1ccc2c(c1)c(O)nn2CCOCCN1CCCCC1` [Compound 459] was over 100 µM.
On the same count and under the same terms, the value for `O=C1C(=Cc2cccs2)CCC1=Cc1cccs1` [Compound 1248] was over 100 µM; that for `C=CCn1c(C(=O)N2CCN(Cc3ccccc3)CC2)csc1=NN=CC=Cc1ccco1` [Compound 1117] was over 100 µM; that for `Clc1ccc(-c2csc(N=CC=Cc3ccco3)n2)cc1` [Compound 910] was over 100 µM.
The same measure, in the same setting: the figure for `C=CCn1c(-c2ccc(Cl)cc2)csc1=NN=Cc1ccc([N+](=O)[O-])s1` [Compound 145] is over 100 µM; for `CC(=NN=c1[nH]c(C(=O)O)cs1)C1CCC2C3CC=C4CC(O)CCC4(C)C3CCC12C` (centres unmarked) [Compound 1258] it is over 100 µM.
In the case of `O=C1C(=Cc2ccc([N+](=O)[O-])s2)C(=O)N(C2CCCCC2)S(=O)(=O)N1C1CCCCC1` [Compound 113], the IC50 was over 100 µM.
On the same count and under the same terms, the value for `C=CCNC(=S)NN=C(C)c1cc2ccccc2o1` [Compound 787] was over 100 µM; that for `C=CCN1C(=O)CSC1=NN=C(C)[C@H]1CC[C@H]2[C@@H]3CC=C4CC(O)CC[C@]4(C)[C@H]3CC[C@]12C` (some centres unmarked) [Compound 1125] was over 100 µM.
Same read-out and setting: the figure for `C=CCn1c(C(=O)CN2CCSCC2)csc1=NN=CC=Cc1ccco1` [Compound 1116] is over 100 µM; for `O=S(=O)(NC1CCCCC1)NC1CCCCC1` [Compound 118] it is over 100 µM; for `N#Cc1c2ccccc2[n+]([O-])n1CCC=Cc1ccc(Cl)cc1` [Compound 501] it is over 100 µM.
Same read-out and setting: the figure for `C=CCn1c(-c2ccc(Cl)cc2)csc1=NN=C/C=C/C=C/c1cccs1` [Compound 311] is 50 to 100 µM; for `C=CCNC(=S)NN=CC=Cc1ccc([N+](=O)[O-])s1` [Compound 142] it is over 100 µM.

The assay is the same for the next values; noted with them: recombinant FhTIM, 1 h incubation with compound at 37 °C; read-out: IC50.
Regarding `CN(C)Cc1ccccc1Cn1nc(O)c2cc([N+](=O)[O-])ccc21` [Compound 482], the concentration for half-maximal inhibition (IC50) stood at 30 ± 3 µM.
